Test results as given in patent US20110281807A1, “PLANT DISEASE CONTROL AGENT COMPRISING D-TAGATOSE AS ACTIVE INGREDIENT, AND PLANT DISEASE CONTROL METHOD” (NATIONAL UNIVERSITY CORPORATION KAGAWA UNIVERSITY, priority 2008, published 2011).
Values joined by “and” are separate entries in the source; they are usually repeats but may differ in a detail not shown here. Equal values may be shown once. Read-outs that look alike come from different tables or passages of the source.

What was measured:
[1] = tested on: Pythium glaminicola; conditions: for Preventive value: 10 ml soil drench, from percentage of onset area after 2 weeks
Method: Four germinated rice seeds (variety: Koshihikari) were sowed in a pot (5×5 cm), which contains infected soil with Pythium glaminicola (mycelium 100 g/1 L soil). The pot was drenched with 10 ml of D-tagatose dilution and the seeds were covered with soil. After 2 weeks, the disease severity of the test plants per rice seedling in 25 cm^2 was observed and the effectiveness of test sample was judged. Tests were carried out in duplicate and the preventive value was calculated from percentage of onset area.

[2] = tested on: Plasmopara viticola; conditions: Plasmopara viticola, 168 h, read-out: Preventive value
Method: Test plants (variety: Neo Muscat) were seeded and grown until three leaves. D-Tagatose was diluted to 5000 ppm and the fungicides were diluted to the concentrations listed in table 16, with distilled water, and 10 ml of the dilution was sprayed on the plants. Three days after the spraying of the dilution, the plants were infected by spraying a sporangium suspension of Plasmopara viticola containing 1×10^3/ml and then put for 16 hours in an inoculation chamber (20° C. to 23° C.) to promote disease. The disease severity of the test plants was observed 7 days after inoculation, and the effectiveness of test sample was judged.

[3] = tested on: Botrytis cinerea; conditions: Botrytis cinerea, in Solanum lycopersicum, 168 h, read-out: Preventive value
Method: Test plants (tomato, variety: Ogata-fukujyu) were seeded and grown until the three leaf stage. D-Tagatose and fungicide were diluted to 10000 ppm and the concentrations liste in table 23, respectively, with distilled water and 10 ml of the dilution was sprayed on the plants. Three days after spraying the solution, condia suspension of Botrytis cinerea were inoculated by spraying on test plants and then put for 16 hours in an inoculation chamber (20° C. to 23° C.) to promote disease. Seven days after inoculation, the disease severity of the test plants was observed and the effectiveness of test sample was judged.

[4] = tested on: Erysiphe graminis f.sp. hordei; conditions: Blumeria graminis, in Hordeum vulgare, 168 h, read-out: Preventive value
Method: Test plants (barley, variety: Akashinriki) were seeded and grown until the one leaf stage. D-tagatose and fungicide were diluted to 5000 ppm and the concentrations listed in table 21, respectively, with distilled water and 10 ml of the dilution was sprayed thoroughly on the plants. Three days after spraying, a condia suspension of Erysiphe graminis f.sp. hordei was inoculated by spraying on test plants. 7 days after inoculation the disease severity of the test plants was observed and the effectiveness of test sample was judged.

[5] = tested on: Pseudoperonospora cubensis; assay: cucumber downy mildew, pot test: preventive effect; conditions: for Preventive value (3 DAS): inoculated 3 days after spraying; for Preventive value (5 DAS): inoculated 5 days after spraying
Method: Test plants (cucumber, variety: Sagami hanpaku) were seeded and grown until the one true leaf stage. D-Tagatose was diluted to 5%, 1% and 0.5% with distilled water and then 10 ml of the dilution was sprayed on the test plant. Three or five days after spraying, a sporangium suspension of Pseudoperonospora cubensis containing 1×10^3/ml were inoculated by spraying on test plants and then the plants were put for 16 hours in an incubation chamber (20° C. to 23° C.) to promote disease. Seven days after inoculation the disease severity of the test plants was observed and the effectiveness of test sample was judged. Tests were carried out using two plants for each test set and the disease severity of the test plants was judged in accordance with the following criteria. The preventive value was calculated from the degree of the disease severity.
(§1) 0 (No lesion) 1 (Lesion area was not more than 40%) 2 ((Lesion area was 40%-80%) 3 (Lesion area was not less than 80%)
Preventive value=100{1−(n/N)} N=disease severity of untreated leaf, n=disease severity of the tested leaf

[6] = tested on: Sphaerotheca fuligine; assay: cucumber powdery mildew, pot test: preventive effect; conditions: for Preventive value: inoculated 3 days after spraying
Method: Test plants (cucumber, variety: Sagami-hanpaku) were seeded and grown until the one true leaf stage. D-tagatose was diluted to 5% and 1% with distilled water and then 10 ml of the dilution was sprayed on the test plant. Three days after spraying, a condia suspension of Sphaerotheca fuligine was inoculated by spraying on test plants. Seven days after inoculation the disease severity of the test plants was observed and the effectiveness of test sample was judged. Tests were carried out using two plants for each test set and the disease severity of the test plants was judged in accordance with the following criteria.

[7] = tested on: Pseudoperonospora cubensis; assay: cucumber downy mildew, field trial; format: in vivo; conditions: for D.D.S (Degree of disease severity), Av / P.V. (Preventive value), Av / n/N × 100, Av: average of plots; for D.D.S (Degree of disease severity) / P.V. (Preventive value) / n/N × 100 / Disease severity 0: number of leaves / Disease severity 1: number of leaves / Disease severity 2: number of leaves / Disease severity 3: number of leaves / Disease severity 4: number of leaves: per plot (a, b); for Disease severity 0: number of leaves / Disease severity 1: number of leaves / Disease severity 2: number of leaves / Disease severity 3: number of leaves / Disease severity 4: number of leaves: 50 leaves
[8] = tested on: Pyricularia oryze; assay: whole plant or invertebrate; format: in vivo; conditions: Pyricularia, in Oryza sativa, 168 h, read-out: Preventive value
[9] = tested on: Plasmopara viticola; assay: vine downy mildew, field test; conditions: for D.D.S (Degree of disease severity), Av / P.V. (Preventive value), Av / n/N × 100, Av: average of plots
Method: Test plants (variety: kyoho) were grown until approximately 10 leaves. […] After the first spraying of the dilution, grape leaves were infected by spraying a sporangium suspension of Plasmopara viticola containing 1×10^3/ml. The disease severity of the test plants was observed 7 days after last spraying, and the effectiveness of test sample was judged. Tests were carried out in triplicate using half of the test plant per each test. The disease severity of the test plants was judged in accordance with the following criteria. The preventive value was calculated from the degree of disease severity.
(§2) 0 (No lesion) 1 (Lesion area was not more than 5% of the leaf area) 2 ((Lesion area was 5%-25% of the leaf area) 3 (Lesion area was 25%-50% of the leaf area) 4 (Lesion area was not less than 50% of the leaf area)

[10] = tested on: Phytophthora infestans; format: in vivo; conditions: for Preventive value: inoculated 3 days after spraying
[11] = tested on: Pseudoperonospora cubensis; conditions: Pseudoperonospora cubensis, in Cucumis sativus, 168 h, read-out: Preventive value
Method: Test plants (cucumber, variety: Sagami hanpaku) were seeded and grown until the one true leaf stage. D-Tagatose was diluted to 5000 ppm and the fungicides were diluted to the concentrations listed in table 14, with distilled water. And then 10 ml of the dilution was sprayed on the test plant. Three days after spraying of the solution, a sporangium suspension of Pseudoperonospora cubensis containing 1×10^3/ml were inoculated by spraying on test plants and then put for 16 hours in an inoculation chamber (20° C. to 23° C.) to promote disease. Seven days after inoculation the disease severity of the test plants was observed and the effectiveness of the test sample was judged. Tests were carried out using two plants for each test set and the disease severity of the test plants was judged in accordance with the following criteria. The preventive value was calculated from the degree of disease severity.
as §1
Preventive value=100{1−(n/N)} N=disease severity of untreated leaf, n=disease severity of the test leaf Synergistic effect was determined by Colby's equation.

[12] = tested on: Puccinia recondita; assay: wheat brown rust, field trial
Method: Test plants (variety: Nourin 61 gou) were sowed and grown until heading stage. D-Tagatose was diluted to 5% with distilled water and sprayed thoroughly on the plants two times every 8 days. Three days after the first spraying of the dilution, wheat leaves inoculated with wheat fusarium blight (Puccinia recondita) were kept in the test plants. The disease severity of the test plants was observed 21 days after last spraying and the effectiveness of test sample was judged. Tests were carried out in duplicate. One plot of each test was 5 m^2. The disease severity of the test plants was judged in accordance with the following criteria. The preventive value was calculated from the degree of disease severity.

[13] = tested on: Pseudoperonospora cubensis; conditions: alone
Method: Test plants (cucumber, variety: Sagami hanpaku) were seeded and grown until the one true leaf stage. D-tagatose alone was diluted to 5%, 1%, 0.5% and 0.1%, and the combination of D-tagatose and other saccharide were diluted to be 0.5% and 0.5% solution respectively with distilled water, and then 10 ml of the dilution was sprayed on the test plant. Three days after spraying of the solution, a sporangium suspension of Pseudoperonospora cubensis containing 1×10^3/ml were inoculated by spraying on test plants and then put them for 16 hours in an inoculation chamber (20° C. to 23° C.) to promote disease. Seven days after inoculation the disease severity of the test plants was observed and the effectiveness of test sample was judged. Tests were carried out using two plants for each test set and the disease severity of the test plants was judged in accordance with the following criteria. The preventive value was calculated from the degree of disease severity as in example 1.
Synergistic effect was determined by the Colby's equation below.
X is the observed effect, in percentage, of the first active ingredient and, and Y is the observed effect, in percentage, of the second active ingredient. E is the effect, in percentage, of the mixture expected from additive contribution of the individual components.

[14] = tested on: Sphaerotheca fuliginea; conditions: Podosphaera fuliginea, in Cucumis sativus, 168 h, read-out: Preventive value
Method: Test plants (cucumber, variety: Sagami hanpaku) were seeded and grown until the one true leaf stage. D-Tagatose and fungicide were diluted to 5000 ppm and the concentrations listed in table 20, respectively, with distilled water and 10 ml of the dilution was sprayed thoroughly on the plants. Three days after spraying, a condia suspension containing of Sphaerotheca fuliginea were inoculated by spraying on test plants.
Seven days after inoculation the disease severity of the test plants was observed and the effectiveness of test sample was judged.

[15] = tested on: Pythium aphanidermatum; assay: cucumber damping-off, pot test: soil drench of D-tagatose combined with fungicides; conditions: Pythium aphanidermatum, in Cucumis sativus, soil, 336 h, read-out: Preventive value
Method: Five seeds of test plants (cucumber, variety: Sagami hanpaku) were sowed in a pot (5×5 cm), which contains infested soil with Pythium aphanidermatum (mycelium 100 g/1 L soil) and was covered with soil. D-Tagatose was diluted to 5000 ppm and the fungicides were diluted to the concentrations listed in table 18, with distilled water. The pot was drenched with 10 ml of the dilution. After 2 weeks, the disease severity of the test plants was observed and the effectiveness of test sample was judged. Tests were carried out in triplicate using 5 plants for each test set and the preventive value was calculated from the germination rate.

[16] = tested on: Pseudoperonospora cubensis; conditions: Pseudoperonospora cubensis, in Cucumis sativus, 168 h, read-out: Preventive value; remark: listed apart in the source
[17] = tested on: Phytophthora infestans; assay: whole plant or invertebrate; format: in vivo; conditions: Phytophthora infestans, in Solanum lycopersicum, 168 h, read-out: Preventive value
[18] = tested on: Sphaerotheca fuliginea; assay: cucumber powdery mildew, field test; conditions: for D.D.S (Degree of disease severity), Av / P.V. (Preventive value), Av / n/N × 100, Av: average of plots
Method: Test plants (cucumber, variety: Ancor) were grown until approximately 10 leaves. […] After the first spraying of the dilution, the test plants were inoculated with condia of suspension of Sphaerotheca fuliginea. The disease severity of the test plants was observed 7 days after the last spraying, and the effectiveness of test sample was judged. Tests were carried out in triplicate using 8 plants per each test. The disease severity of the test plants was judged in accordance with the following criteria. The preventive value was calculated from the degree of disease severity.
as §2

[19] = 50000 ppm spray, listed as D-tagatose
[20] = 10000 ppm, per plot (1-3), 50 leaves
[21] = 50000 ppm, per plot (1-3), 50 leaves
[22] = 50000 ppm, per plot (1, 2), 100 leaves
[23] = 10000 ppm, per plot (1, 2), 50 leaves
[24] = 50000 ppm, per plot (1, 2), 50 leaves

O=C(CO)[C@@H](O)[C@@H](O)[C@H](O)CO [D-Tagatose, D-tagatose]
Preventive value ([1]; 10000 ppm): 77.3
Preventive value ([1]; 50000 ppm): 96.2
effectiveness in words ([1]; soil drench): effective enough
pest or weed control at 5000 ppm [2]: 17%
pest or weed control at 10000 ppm [2]: 67%
pest or weed control at 10000 ppm [3]: 0%
pest or weed control at 50000 ppm [3]: 17%
pest or weed control at 5000 ppm [4]: 50%
pest or weed control at 10000 ppm [4]: 73%
Preventive value (3 DAS) ([5]; 5000 ppm spray): 49.2
Preventive value (5 DAS) ([5]; 5000 ppm spray): 37.5
Preventive value (3 DAS) ([5]; 10000 ppm spray): 99.2
Preventive value (5 DAS) ([5]; 10000 ppm spray): 90.0
Preventive value (5 DAS) ([5]; 10000 ppm spray, listed as D-tagatose): 90
Preventive value (3 DAS) ([5]; 50000 ppm spray): 100.0
Preventive value (3 DAS) [5, 19]: 100
Preventive value (5 DAS) ([5]; 50000 ppm spray): 100.0
Preventive value (5 DAS) [5, 19]: 100
Preventive value ([6]; 10000 ppm spray): 20.0
Preventive value ([6]; 50000 ppm spray): 87.5
effectiveness in words ([6]; foliar spray): effective enough
D.D.S (Degree of disease severity), Av ([7]; 10000 ppm): 2.25
P.V. (Preventive value), Av ([7]; 10000 ppm): 96.5
n/N × 100, Av ([7]; 10000 ppm): 9.0
D.D.S (Degree of disease severity) ([7]; 10000 ppm): 3.00 and 1.50
P.V. (Preventive value) ([7]; 10000 ppm): 95.4 and 97.7
n/N × 100 ([7]; 10000 ppm): 12.0 and 6.0
Disease severity 0: number of leaves ([7]; 10000 ppm): 44 and 47
Disease severity 1: number of leaves ([7]; 10000 ppm): 6 and 3
Disease severity 2: number of leaves ([7]; 10000 ppm): 0
Disease severity 3: number of leaves ([7]; 10000 ppm): 0
Disease severity 4: number of leaves ([7]; 10000 ppm): 0
D.D.S (Degree of disease severity), Av ([7]; 50000 ppm): 2.50
P.V. (Preventive value), Av ([7]; 50000 ppm): 96.1
n/N × 100, Av ([7]; 50000 ppm): 10.0
D.D.S (Degree of disease severity) ([7]; 50000 ppm): 3.00 and 2.00
P.V. (Preventive value) ([7]; 50000 ppm): 95.4 and 96.9
n/N × 100 ([7]; 50000 ppm): 12.0 and 8.0
Disease severity 0: number of leaves ([7]; 50000 ppm): 44 and 46
Disease severity 1: number of leaves ([7]; 50000 ppm): 6 and 4
Disease severity 2: number of leaves ([7]; 50000 ppm): 0
Disease severity 3: number of leaves ([7]; 50000 ppm): 0
Disease severity 4: number of leaves ([7]; 50000 ppm): 0
effectiveness in words ([7]; field test): effective enough
pest or weed control at 10000 ppm [8]: 0%
pest or weed control at 50000 ppm [8]: 50%
D.D.S (Degree of disease severity), Av ([9]; 10000 ppm): 12.75
P.V. (Preventive value), Av ([9]; 10000 ppm): 71.7
n/N × 100, Av ([9]; 10000 ppm): 31.0
D.D.S (Degree of disease severity) ([9]; 10000 ppm, per plot (1-3)): 14.50 and 18.50 and 11.00
P.V. (Preventive value) ([9]; 10000 ppm, per plot (1-3)): 72.0 and 64.3 and 78.7
n/N × 100 ([9]; 10000 ppm, per plot (1-3)): 36.0 and 32.0 and 26.0
Disease severity 0: number of leaves [9, 20]: 32 and 34 and 37
Disease severity 1: number of leaves [9, 20]: 8 and 4
D.D.S (Degree of disease severity), Av ([9]; 50000 ppm): 0.00
P.V. (Preventive value), Av ([9]; 50000 ppm): 99.4
n/N × 100, Av ([9]; 50000 ppm): 0.0
P.V. (Preventive value) ([9]; 50000 ppm, per plot (1-3)): 100.0 and 93.1
Disease severity 0: number of leaves [9, 21]: 50 and 48
Disease severity 2: number of leaves [9, 21]: 0
Disease severity 3: number of leaves [9, 21]: 0
Disease severity 4: number of leaves [9, 21]: 0
effectiveness in words ([9]; field test): effective enough
Preventive value ([10]; 50000 ppm spray): 28.3
Preventive value ([10]; 100000 ppm spray): 58.3
effectiveness in words ([10]; foliar spray): effective enough
pest or weed control at 5000 ppm [11]: 40%
pest or weed control at 10000 ppm [11]: 83%
D.D.S (Degree of disease severity), Av ([12]; 50000 ppm, average of plots): 6.1
D.D.S (Degree of disease severity) ([12]; 50000 ppm, per plot (1, 2)): 4.7 and 7.5
Leaves number(n) of disease severity 0 [12, 22]: 76 and 68
Leaves number(n) of disease severity 1 [12, 22]: 22 and 25
Leaves number(n) of disease severity 4 [12, 22]: 0
Leaves number(n) of disease severity 5 [12, 22]: 0
Leaves number(n) of disease severity 6 [12, 22]: 0
P.V. (Preventive value), Av ([12]; 50000 ppm, sprayed two times every 8 days, rated 21 days after last spraying): 92.5
effectiveness in words ([12]; field trial): effective enough
Preventive value ([13]; 1000 ppm): 0.0
Preventive value ([13]; 5000 ppm): 8.3
Preventive value ([13]; 10000 ppm): 98.3
Preventive value ([13]; 50000 ppm): 100.0
pest or weed control at 5000 ppm [14]: 40%
pest or weed control at 10000 ppm [14]: 93%
pest or weed control at 5000 ppm [15]: 33%
pest or weed control at 10000 ppm [15]: 83%
pest or weed control at 5000 ppm [16]: 33%
pest or weed control at 10000 ppm [16]: 73%
pest or weed control at 5000 ppm [17]: 0%
pest or weed control at 10000 ppm [17]: 40%
D.D.S (Degree of disease severity), Av ([18]; 10000 ppm): 5.75
P.V. (Preventive value), Av ([18]; 10000 ppm): 94.0
n/N × 100, Av ([18]; 10000 ppm): 15.0
D.D.S (Degree of disease severity) ([18]; 10000 ppm, per plot (1, 2)): 8.00
P.V. (Preventive value) ([18]; 10000 ppm, per plot (1, 2)): 96.4 and 91.7
Disease severity 0: number of leaves [18, 23]: 46 and 39
Disease severity 3: number of leaves [18, 23]: 1
Disease severity 4: number of leaves [18, 23]: 0
D.D.S (Degree of disease severity), Av ([18]; 50000 ppm): 1.25
P.V. (Preventive value), Av ([18]; 50000 ppm): 98.7
n/N × 100, Av ([18]; 50000 ppm): 5.0
D.D.S (Degree of disease severity) ([18]; 50000 ppm, per plot (1, 2)): 1.00 and 1.50
P.V. (Preventive value) ([18]; 50000 ppm, per plot (1, 2)): 99.0 and 98.4
n/N × 100 ([18]; 50000 ppm, per plot (1, 2)): 4.0 and 6.0
Disease severity 0: number of leaves [18, 24]: 48 and 47
Disease severity 1: number of leaves [18, 24]: 2 and 3
Disease severity 2: number of leaves [18, 24]: 0
Disease severity 3: number of leaves [18, 24]: 0
Disease severity 4: number of leaves [18, 24]: 0
effectiveness in words ([18]; field test): effective enough
